This is an account of results in patent US20050148254A1, “Light-activated biocidal polyelectrolytes” (priority 2003, published 2005).

SMILES strings stand for the structures.

The test has as its system Bacillus anthracis spores. Format: cell-based, Bacillus anthracis (Sterne).

In the case of `O=C1OC2(c3cc(I)c(O)c(I)c3Oc3c2cc(I)c(O)c3I)c2c(Cl)c(Cl)c(Cl)c(Cl)c21` [RBL, Rose Bengal lactone], the “reduction in survival for B. anthracis” value is listed as “approximately 40%”.

As to `CN(C)c1ccc2nc3ccc(=[N+](C)C)cc-3sc2c1` [MB, methylene blue], the “inhibition of B. anthracis survival” value was “no inhibition” and the “reduction in survival for B. anthracis” value stood at 75%.

Turning to `CCCCCCCCCCCC[N+](C)(C)C.[Br-]` [DTAB, dodecyltrimethylammonium bromide], the “% killing” value was 40%, the Spore colonies was 84 ± 4, the “reduction in bacterial survival” value was “approximately 40%” and the “reduction of bacterial survival” value is listed as “approximately 40%”.
